We go through five compounds from patent US9074014B2 (Ipsen Pharma S.A.S., priority 2008, dated 2015).

Where a SMILES comes first, the peptide text is derived from it. [ ]: non-standard residue; d: D form. Ac6c = NC1(C(=O)O)CCCCC1; Ac5c = NC1(C(=O)O)CCCC1; Aib = CC(C)(N)C(=O)O A value given as a limit tells only on which side of the number the result lay.

The target of data set [1] is T1, human recombinant GIP receptor (Homo sapiens, UniProt P48546).
T1 construct: expressed in transfected cells; host or cells: CHO-K1 clonal cells (membranes)
T1 sequence (P48546 22-466): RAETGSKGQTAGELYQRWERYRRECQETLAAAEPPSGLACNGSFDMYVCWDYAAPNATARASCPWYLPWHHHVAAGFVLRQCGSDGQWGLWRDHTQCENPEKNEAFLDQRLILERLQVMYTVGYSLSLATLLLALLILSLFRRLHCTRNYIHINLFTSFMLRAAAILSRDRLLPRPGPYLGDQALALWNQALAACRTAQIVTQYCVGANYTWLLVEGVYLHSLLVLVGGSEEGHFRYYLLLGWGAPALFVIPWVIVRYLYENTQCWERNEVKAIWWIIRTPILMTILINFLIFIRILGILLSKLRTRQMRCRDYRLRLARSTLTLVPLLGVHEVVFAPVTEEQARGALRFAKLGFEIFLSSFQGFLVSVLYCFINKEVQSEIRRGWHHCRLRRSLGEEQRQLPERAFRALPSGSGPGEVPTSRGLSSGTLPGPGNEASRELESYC
Briefly: In vitro hGIP receptor binding assay ([125I]GIP displacement, CHO-K1 membranes). An excerpt:
A. In Vitro hGIP Receptor Binding Assay

Data set [2] in a line: Human plasma half-life assay. To be noted: human plasma, 37° C., LC-MS; read-out: Human Plasma T½ (converted). The format is in vitro ADME.
A short description of data set [3]: Rat plasma half-life assay. The format is in vitro ADME. To be noted: rat plasma, 37° C., LC-MS; read-out: Rat Plasma T½ (converted).

Consider `CC[C@H](C)[C@H](NC(=O)[C@H](CO)NC(=O)[C@H](Cc1ccc(O)cc1)NC(=O)[C@H](CC(=O)O)NC(=O)C(C)(C)NC(=O)[C@@H](NC(=O)[C@H](Cc1ccccc1)NC(=O)[C@@H](NC(=O)CNC(=O)[C@H](CCC(=O)O)NC(=O)C(C)(C)NC(=O)[C@@H](N)Cc1ccc(O)cc1)[C@@H](C)O)[C@@H](C)CC)C(=O)N[C@@H](C)C(=O)N[C@@H](CCSC)C(=O)N[C@@H](CC(=O)O)C(=O)N[C@@H](CCCCN)C(=O)N[C@H](C(=O)N[C@@H](Cc1c[nH]cn1)C(=O)N[C@@H](CCC(N)=O)C(=O)N[C@@H](CCC(N)=O)C(=O)N[C@@H](CC(=O)O)C(=O)N[C@@H](Cc1ccccc1)C(=O)N[C@H](C(=O)N[C@@H](CC(N)=O)C(=O)N[C@@H](Cc1c[nH]c2ccccc12)C(=O)N[C@@H](CC(C)C)C(=O)N[C@@H](CC(C)C)C(=O)N[C@@H](C)C(=O)N[C@@H](CCC(N)=O)C(=O)N[C@@H](CCCCN)C(N)=O)C(C)C)[C@@H](C)CC` [Example 17, (Aib^2, 8)hGIP(1-30)-NH2] (H-Y[Aib]EGTFI[Aib]DYSIAMDKIHQQDFVNWLLAQK-NH2; N-terminus assumed), for which, in data set [1], the Ki was found to be 15900 pM. The half-life at 0.1 mg/ml was 17.4 h in data set [2] and 55 h in data set [3].
For the compound `CC[C@H](C)[C@H](NC(=O)[C@H](CCCCN)NC(=O)[C@H](CC(=O)O)NC(=O)C1(NC(=O)[C@H](C)NC(=O)[C@@H](NC(=O)C(C)(C)NC(=O)[C@H](Cc2ccc(O)cc2)NC(=O)[C@H](CC(=O)O)NC(=O)[C@H](CO)NC(=O)[C@@H](NC(=O)[C@H](Cc2ccccc2)NC(=O)[C@@H](NC(=O)CNC(=O)[C@H](CCC(=O)O)NC(=O)C(C)(C)NC(=O)[C@@H](N)Cc2ccc(O)cc2)[C@@H](C)O)[C@@H](C)CC)[C@@H](C)CC)CCCCC1)C(=O)N[C@@H](Cc1c[nH]cn1)C(=O)N[C@@H](CCC(N)=O)C(=O)N[C@@H](CCC(N)=O)C(=O)N[C@@H](CC(=O)O)C(=O)N[C@@H](Cc1ccccc1)C(=O)N[C@H](C(=O)N[C@@H](CC(N)=O)C(=O)N[C@@H](Cc1c[nH]c2ccccc12)C(=O)N[C@@H](CC(C)C)C(=O)N[C@@H](CC(C)C)C(=O)N[C@@H](C)C(=O)N[C@@H](CCC(N)=O)C(=O)N[C@@H](CCCCN)C(N)=O)C(C)C` [Example 38, (Aib^2, 11, A6c^14)hGIP(1-30)-NH2] (H-Y[Aib]EGTFISDY[Aib]IA[Ac6c]DKIHQQDFVNWLLAQK-NH2; N-terminus assumed), in data set [1], the inhibitory constant (Ki) stood at 730 pM. Moreover, the results for the half-life at 0.1 mg/ml in data set [2] and in data set [3] were 49.1 h and over 54 h, respectively.
The corresponding values for `CCCC[C@H](NC(=O)[C@H](C)NC(=O)[C@@H](NC(=O)[C@H](CO)NC(=O)[C@H](Cc1ccc(O)cc1)NC(=O)[C@H](CC(=O)O)NC(=O)[C@H](CO)NC(=O)[C@@H](NC(=O)[C@H](Cc1ccccc1)NC(=O)[C@@H](NC(=O)CNC(=O)[C@H](CCC(=O)O)NC(=O)C1(NC(=O)[C@@H](N)Cc2ccc(O)cc2)CCCC1)[C@@H](C)O)[C@@H](C)CC)[C@@H](C)CC)C(=O)N[C@@H](CC(=O)O)C(=O)N[C@@H](CCCCN)C(=O)N[C@H](C(=O)N[C@@H](Cc1c[nH]cn1)C(=O)N[C@@H](CCC(N)=O)C(=O)N[C@@H](CCC(N)=O)C(=O)N[C@@H](CC(=O)O)C(=O)N[C@@H](Cc1ccccc1)C(=O)N[C@H](C(=O)N[C@@H](CC(N)=O)C(=O)N[C@@H](Cc1c[nH]c2ccccc12)C(=O)N[C@@H](CC(C)C)C(=O)N[C@@H](CC(C)C)C(=O)N[C@@H](C)C(=O)N[C@@H](CCC(N)=O)C(=O)N[C@@H](CCCCN)C(=O)NCC(=O)N[C@@H](CCCCN)C(=O)N[C@@H](CCCCN)C(=O)N[C@@H](CC(N)=O)C(=O)N[C@@H](CC(=O)O)C(=O)N[C@@H](Cc1c[nH]c2ccccc12)C(=O)N[C@@H](CCCCN)C(=O)N[C@@H](Cc1c[nH]cn1)C(=O)N[C@@H](CC(N)=O)C(=O)N[C@H](C(=O)N[C@H](C(=O)N[C@@H](CCC(N)=O)C(=O)O)[C@@H](C)O)[C@@H](C)CC)C(C)C)[C@@H](C)CC` [Example 40, (A5c^2, Nle^14)hGIP(1-42)-OH] are 15900 pM, 7.7 h and 4.9 h.
For `CC[C@H](C)[C@H](NC(=O)[C@H](CCCCN)NC(=O)[C@H](CC(=O)O)NC(=O)[C@H](CCSC)NC(=O)[C@H](C)NC(=O)[C@@H](NC(=O)C1(NC(=O)[C@H](Cc2ccc(O)cc2)NC(=O)[C@H](CC(=O)O)NC(=O)[C@H](CO)NC(=O)[C@@H](NC(=O)[C@H](Cc2ccccc2)NC(=O)[C@@H](NC(=O)CNC(=O)[C@H](CCC(=O)O)NC(=O)C(C)(C)NC(=O)[C@@H](N)Cc2ccc(O)cc2)[C@@H](C)O)[C@@H](C)CC)CCCC1)[C@@H](C)CC)C(=O)N[C@@H](Cc1c[nH]cn1)C(=O)N[C@@H](CCC(N)=O)C(=O)N[C@@H](CCC(N)=O)C(=O)N[C@@H](CC(=O)O)C(=O)N[C@@H](Cc1ccccc1)C(=O)N[C@H](C(=O)N[C@@H](CC(N)=O)C(=O)N[C@@H](Cc1c[nH]c2ccccc12)C(=O)N[C@@H](CC(C)C)C(=O)N[C@@H](CC(C)C)C(=O)N[C@@H](C)C(=O)N[C@@H](CCC(N)=O)C(=O)N[C@@H](CCCCN)C(N)=O)C(C)C` [Example 46, (Aib^2, A5c^11)hGIP(1-30)-NH2] (H-Y[Aib]EGTFISDY[Ac5c]IAMDKIHQQDFVNWLLAQK-NH2; N-terminus assumed), in that order: 90 pM, 12.2 h and over 54 h.
Take `CC[C@H](C)[C@H](NC(=O)[C@H](CCCCN)NC(=O)[C@H](CC(=O)O)NC(=O)[C@H](CCSC)NC(=O)[C@H](C)NC(=O)[C@@H](NC(=O)C1(NC(=O)[C@H](Cc2ccc(O)cc2)NC(=O)[C@H](CC(=O)O)NC(=O)[C@H](CO)NC(=O)[C@@H](NC(=O)[C@H](Cc2ccccc2)NC(=O)[C@@H](NC(=O)CNC(=O)[C@H](CCC(=O)O)NC(=O)[C@@H](C)NC(=O)[C@@H](N)Cc2ccc(O)cc2)[C@@H](C)O)[C@@H](C)CC)CCCC1)[C@@H](C)CC)C(=O)N[C@@H](Cc1c[nH]cn1)C(=O)N[C@@H](CCC(N)=O)C(=O)N[C@@H](CCC(N)=O)C(=O)N[C@@H](CC(=O)O)C(=O)N[C@@H](Cc1ccccc1)C(=O)N[C@H](C(=O)N[C@@H](CC(N)=O)C(=O)N[C@@H](Cc1c[nH]c2ccccc12)C(=O)N[C@@H](CC(C)C)C(=O)N[C@@H](CC(C)C)C(=O)N[C@@H](C)C(=O)N[C@@H](CCC(N)=O)C(=O)N[C@@H](CCCCN)C(=O)N[C@@H](Cc1c[nH]cn1)C(N)=O)C(C)C` [Example 122, (D-Ala^2, A5c^11, His^31)hGIP(1-31)-NH2] (H-Y[dA]EGTFISDY[Ac5c]IAMDKIHQQDFVNWLLAQKH-NH2; N-terminus assumed): the Ki in data set [1] stood at 870 pM.

The term Ki denotes the equilibrium dissociation constant of an inhibitor or competing ligand from its target.
